# Data reported in patent US12642797B2, “Coated granule, solid dispersion, and preparation containing vortioxetine hydrobromide for oral taste masking” (Seasons Biotechnology (Taizhou) Co., Ltd., priority 2019, dated 2026).
# Counter-ions that a name gives are not always drawn.
# Key:
# [1] = Solubility in sodium acetate medium pH 6.8 simulating the oral environment (USP method); assay type: physicochemical; settings: sodium acetate medium pH 6.8, USP method; hemihydrobromide
# tongue = experiment: Comparative Example 1: comparison of taste of different vortioxetine salts (10 subjects, 30 attempts); settings: converted to the same amount of C18H22N2S
# Description: The vortioxetine lactate salt, vortioxetine hydrobromide and vortioxetine hemihydrobromide equivalent to 5 mg of vortioxetine respectively over 100 mesh powders were put directly in front of the upper part of the tongue for one minute. There were 10 subjects in each salt-type group, and each subject randomly tried each salt-type 3 times. After trying one salt-type taste, rinsed your mouth, and try another salt-type after there was no irritation. After trying the taste, record the bitterness level and tongue irritation, spit it out a few seconds later, rinse your mouth, record the time for the irritation to subside, eat 1-1.5 hours later, and record the irritation again.
# oral cavity and tongue = experiment: Taste and irritation test by subjects (self-made sample vs reference sample); assay type: in vivo, human; settings: for Instantaneous irritation: 0-1 minute; for Instantaneous irritation / Delayed irritation: powder equivalent to 20 mg of vortioxetine tasted, hemihydrobromide
# Description: In the examples, the taste masking effects of test samples were evaluated by the subject's perception of the bitterness and irritation of the oral cavity and tongue. The Taste and Irritation Classification Tested by the Subjects: [table]
# [2] = Subject 1, listed as Reference sample (1a)
# [3] = Subject 1, listed as Reference sample (1e)
# [4] = Subject 1, listed as Reference sample (2a)
# [5] = Subject 1, listed as Reference sample (2c)
# [6] = Subject 1, listed as Reference sample (3a)
# [7] = Subject 1, listed as Reference sample (3b)
# [8] = Subject 1, listed as Reference sample (3c)
# [9] = Subject 1, listed as Reference sample (4a)
# [10] = Subject 1, listed as Reference sample (1d)
# [11] = Subject 1, listed as Reference sample (2d)
# [12] = Subject 2, listed as Reference sample (1a)
# [13] = Subject 2, listed as Reference sample (1e)
# [14] = Subject 2, listed as Reference sample (2a)
# [15] = Subject 2, listed as Reference sample (2c)
# [16] = Subject 2, listed as Reference sample (3a)
# [17] = Subject 2, listed as Reference sample (3b)
# [18] = Subject 2, listed as Reference sample (3c)
# [19] = Subject 2, listed as Reference sample (4a)
# [20] = Subject 2, listed as Reference sample (1d)
# [21] = Subject 2, listed as Reference sample (2d)
# [22] = Subject 3, listed as Reference sample (1a)
# [23] = Subject 3, listed as Reference sample (1e)
# [24] = Subject 3, listed as Reference sample (2a)
# [25] = Subject 3, listed as Reference sample (2c)
# [26] = Subject 3, listed as Reference sample (3a)
# [27] = Subject 3, listed as Reference sample (3b)
# [28] = Subject 3, listed as Reference sample (3c)
# [29] = Subject 3, listed as Reference sample (4a)
# [30] = Subject 3, listed as Reference sample (1d)
# [31] = Subject 3, listed as Reference sample (2d)
compound,measurement,setting,value
Cc1ccc(Sc2ccccc2N2CCNCC2)c(C)c1 [vortioxetine hemihydrobromide],solubility,[1],140 µg/mL
same,"Irritation compared with vortioxetine hydrobromide, in words",tongue,significantly less irritating
same,"Irritation, overall comparison in words","oral cavity and tongue; 5 subjects, treated powder vs untreated 100-mesh salt powder, each equivalent to 20 mg vortioxetine",obvious and could hardly be tolerated
same,Instantaneous irritation,oral cavity and tongue; [2],"++ (+ + Irritating, tolerable)"
same,Instantaneous irritation,oral cavity and tongue; [3],"++ (+ + Irritating, tolerable)"
same,Instantaneous irritation,oral cavity and tongue; [4],"+++ (+ + + Strong irritation, intolerable)"
same,Instantaneous irritation,oral cavity and tongue; [5],"+++ (+ + + Strong irritation, intolerable)"
same,Instantaneous irritation,oral cavity and tongue; [6],"+++ (+ + + Strong irritation, intolerable)"
same,Instantaneous irritation,oral cavity and tongue; [7],"+++ (+ + + Strong irritation, intolerable)"
same,Instantaneous irritation,oral cavity and tongue; [8],"+++ (+ + + Strong irritation, intolerable)"
same,Instantaneous irritation,oral cavity and tongue; [9],"+++ (+ + + Strong irritation, intolerable)"
same,Instantaneous irritation,oral cavity and tongue; [10],"++ (+ + Irritating, tolerable)"
same,Instantaneous irritation,oral cavity and tongue; [11],"++ (+ + Irritating, tolerable)"
same,Delayed irritation,oral cavity and tongue; [2],>30 min
same,Delayed irritation,oral cavity and tongue; [3],15 to 30 min
same,Delayed irritation,oral cavity and tongue; [4],>30 min
same,Delayed irritation,oral cavity and tongue; [5],>30 min
same,Delayed irritation,oral cavity and tongue; [6],>30 min
same,Delayed irritation,oral cavity and tongue; [7],>30 min
same,Delayed irritation,oral cavity and tongue; [8],>30 min
same,Delayed irritation,oral cavity and tongue; [9],>30 min
same,Delayed irritation,"oral cavity and tongue; Subject 1, listed as Reference sample (5)",15 to 30 min
same,Delayed irritation,"oral cavity and tongue; Subject 1, listed as Reference sample (6)",15 to 30 min
same,Delayed irritation,"oral cavity and tongue; Subject 1, listed as Reference sample (7a)",>30 min
same,Delayed irritation,"oral cavity and tongue; Subject 1, listed as Reference sample (8a)",15 to 30 min
same,Delayed irritation,"oral cavity and tongue; Subject 1, listed as Reference sample (8b)",15 to 30 min
same,Delayed irritation,oral cavity and tongue; [10],15 to 30 min
same,Delayed irritation,oral cavity and tongue; [11],>30 min
same,Instantaneous irritation,oral cavity and tongue; [12],"+++ (+ + + Strong irritation, intolerable)"
same,Instantaneous irritation,oral cavity and tongue; [13],"+++ (+ + + Strong irritation, intolerable)"
same,Instantaneous irritation,oral cavity and tongue; [14],"++ (+ + Irritating, tolerable)"
same,Instantaneous irritation,oral cavity and tongue; [15],"++ (+ + Irritating, tolerable)"
same,Instantaneous irritation,oral cavity and tongue; [16],"++ (+ + Irritating, tolerable)"
same,Instantaneous irritation,oral cavity and tongue; [17],"++ (+ + Irritating, tolerable)"
same,Instantaneous irritation,oral cavity and tongue; [18],"++ (+ + Irritating, tolerable)"
same,Instantaneous irritation,oral cavity and tongue; [19],"++ (+ + Irritating, tolerable)"
same,Instantaneous irritation,oral cavity and tongue; [20],"+++ (+ + + Strong irritation, intolerable)"
same,Instantaneous irritation,oral cavity and tongue; [21],"++ (+ + Irritating, tolerable)"
same,Delayed irritation,oral cavity and tongue; [12],>30 min
same,Delayed irritation,oral cavity and tongue; [13],>30 min
same,Delayed irritation,oral cavity and tongue; [14],15 to 30 min
same,Delayed irritation,oral cavity and tongue; [15],15 to 30 min
same,Delayed irritation,oral cavity and tongue; [16],15 to 30 min
same,Delayed irritation,oral cavity and tongue; [17],15 to 30 min
same,Delayed irritation,oral cavity and tongue; [18],15 to 30 min
same,Delayed irritation,oral cavity and tongue; [19],15 to 30 min
same,Delayed irritation,"oral cavity and tongue; Subject 2, listed as Reference sample (5)",>30 min
same,Delayed irritation,"oral cavity and tongue; Subject 2, listed as Reference sample (6)",>30 min
same,Delayed irritation,"oral cavity and tongue; Subject 2, listed as Reference sample (7a)",15 to 30 min
same,Delayed irritation,"oral cavity and tongue; Subject 2, listed as Reference sample (8a)",15 to 30 min
same,Delayed irritation,"oral cavity and tongue; Subject 2, listed as Reference sample (8b)",15 to 30 min
same,Delayed irritation,oral cavity and tongue; [20],>30 min
same,Delayed irritation,oral cavity and tongue; [21],15 to 30 min
same,Instantaneous irritation,oral cavity and tongue; [22],"+++ (+ + + Strong irritation, intolerable)"
same,Instantaneous irritation,oral cavity and tongue; [23],"+++ (+ + + Strong irritation, intolerable)"
same,Instantaneous irritation,oral cavity and tongue; [24],"+++ (+ + + Strong irritation, intolerable)"
same,Instantaneous irritation,oral cavity and tongue; [25],"+++ (+ + + Strong irritation, intolerable)"
same,Instantaneous irritation,oral cavity and tongue; [26],"++ (+ + Irritating, tolerable)"
same,Instantaneous irritation,oral cavity and tongue; [27],"++ (+ + Irritating, tolerable)"
same,Instantaneous irritation,oral cavity and tongue; [28],"++ (+ + Irritating, tolerable)"
same,Instantaneous irritation,oral cavity and tongue; [29],"+++ (+ + + Strong irritation, intolerable)"
same,Instantaneous irritation,oral cavity and tongue; [30],"+++ (+ + + Strong irritation, intolerable)"
same,Instantaneous irritation,oral cavity and tongue; [31],"+++ (+ + + Strong irritation, intolerable)"
same,Delayed irritation,oral cavity and tongue; [22],>30 min
same,Delayed irritation,oral cavity and tongue; [23],>30 min
same,Delayed irritation,oral cavity and tongue; [24],1 to 15 min
same,Delayed irritation,oral cavity and tongue; [25],1 to 15 min
same,Delayed irritation,oral cavity and tongue; [26],>30 min
same,Delayed irritation,oral cavity and tongue; [27],>30 min
same,Delayed irritation,oral cavity and tongue; [28],>30 min
same,Delayed irritation,oral cavity and tongue; [29],>30 min
same,Delayed irritation,"oral cavity and tongue; Subject 3, listed as Reference sample (5)",15 to 30 min
same,Delayed irritation,"oral cavity and tongue; Subject 3, listed as Reference sample (6)",15 to 30 min
same,Delayed irritation,"oral cavity and tongue; Subject 3, listed as Reference sample (7a)",15 to 30 min
same,Delayed irritation,"oral cavity and tongue; Subject 3, listed as Reference sample (8a)",>30 min
same,Delayed irritation,"oral cavity and tongue; Subject 3, listed as Reference sample (8b)",>30 min
same,Delayed irritation,oral cavity and tongue; [30],>30 min
same,Delayed irritation,oral cavity and tongue; [31],1 to 15 min
